Data published in patent US7238720B2, “Pharmaceutical use of N-carbamoylazole derivatives” (Eisai R & D Management Co. Ltd., priority 2001, dated 2007).

target: T1, DPP-IV, obtained from porcine kidneys (Sus scrofa, UniProt P22411); test: Measurement of DPPIV inhibiting effects (Gly-Pro-p-nitroanilide, absorbance at 405 nm); assay type: biochemical; conditions: porcine kidney DPP-IV 10 mU/mL, 20 min preincubation, Gly-Pro-p-nitroanilide 0.33 mM, pH 7.4
T1 construct: DPP-IV, obtained from porcine kidneys; from tissue; host or cells: porcine kidney
T1 sequence (P22411 whole entry): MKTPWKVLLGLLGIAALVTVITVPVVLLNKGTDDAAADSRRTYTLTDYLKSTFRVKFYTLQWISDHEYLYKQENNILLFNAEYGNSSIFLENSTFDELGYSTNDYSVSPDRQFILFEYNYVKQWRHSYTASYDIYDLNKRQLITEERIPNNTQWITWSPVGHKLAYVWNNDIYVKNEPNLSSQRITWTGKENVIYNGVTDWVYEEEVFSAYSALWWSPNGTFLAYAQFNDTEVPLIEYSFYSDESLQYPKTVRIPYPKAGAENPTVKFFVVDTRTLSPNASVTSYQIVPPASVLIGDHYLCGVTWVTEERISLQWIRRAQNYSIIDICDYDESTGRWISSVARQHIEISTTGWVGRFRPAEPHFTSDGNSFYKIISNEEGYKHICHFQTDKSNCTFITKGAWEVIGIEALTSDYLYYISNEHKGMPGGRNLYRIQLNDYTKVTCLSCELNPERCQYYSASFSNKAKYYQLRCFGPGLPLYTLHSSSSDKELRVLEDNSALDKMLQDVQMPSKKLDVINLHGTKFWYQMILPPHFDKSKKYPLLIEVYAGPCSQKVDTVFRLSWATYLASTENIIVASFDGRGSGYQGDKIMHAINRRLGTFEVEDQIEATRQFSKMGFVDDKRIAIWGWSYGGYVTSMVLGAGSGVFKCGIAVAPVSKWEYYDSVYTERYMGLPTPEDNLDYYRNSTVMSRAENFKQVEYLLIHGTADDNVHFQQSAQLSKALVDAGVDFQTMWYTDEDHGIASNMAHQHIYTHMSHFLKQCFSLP
Procedure: Measurement of DPPIV Inhibiting Effects
DPP-IV, obtained from porcine kidneys, was dissolved in a reaction buffer solution (50 mM Tris-HCl, pH 7.4, 0.1% BSA) such that the concentration of DPP-IV was at 10 mU/mL. This solution (110 μl) was placed into test tubes, to which compounds to be tested were further added at a quantity of 15 μl and incubated at room temperature for 20 minutes. Twenty-five microliters of a solution in which Gly-Pro-p-nitroanilide was dissolved at 2 mM was added (final concentration, 0.33 mM) to start the enzymatic reaction. The reaction time was 20 minutes. The reaction was stopped by the addition of 25 μl of 1 N phosphoric acid.

| Structure (SMILES) | IC50 |
| --- | --- |
| Cc1ccc(S(=O)(=O)c2ccn(C(=O)N(C)C)n2)cc1 [Example 59, 3-(4-Toluenesulfonyl)-1-dimethylcarbamoyl-1H-pyrazole] | 4.22 µM |
| Cc1cc(C)c(Sc2ncn(C(=O)N(C)C)n2)c(C)c1 [Example 32, 3-(2,4,6-Trimethylphenyl)thio-1-dimethylcarbamoyl-1H-1,2,4-triazole] | 3.69 µM |
| CN(C)C(=O)n1cnc(SCC2CCCCC2)n1 [Example 16, 3-Cyclohexylmethylthio-1-dimethylcarbamoyl-1H-1,2,4-triazole] | 5.53 µM |
| CN(C)C(=O)n1cnc(S[C@@H]2C[C@@H]3CC[C@H]2C3)n1 (relative stereo) [Example 12, 3-(Endo-norbornan-2-yl)thio-1-dimethylcarbamoyl-1H-1,2,4-triazole] | 1.73 µM |
| CN(C)C(=O)n1cnc(S(=O)(=O)C(c2ccccc2)c2ccccc2)n1 [Example 7, 3-(Diphenylmethyl)sulfonyl-1-dimethylcarbamoyl-1H-1,2,4-triazole] | 0.192 µM |
| C=CCN(C)C(=O)n1cnc(S(=O)(=O)[C@@H]2C[C@@H]3CC[C@H]2C3)n1 (relative stereo) [Example 27, 3-(Endo-norbornan-2-yl)sulfonyl-1-(N-methyl-N-allylcarbamoyl)-1H-1,2,4-triazole] | 0.0782 µM |
| CN(C)C(=O)n1cnc(SC(c2ccccc2)c2ccccc2)n1 [Example 6, 3-(Diphenylmethyl)thio-1-dimethylcarbamoyl-1H-1,2,4-triazole] | 3.46 µM |
| Cc1ccc(S(=O)(=O)c2ncn(C(=O)N(C)C)n2)cc1 [Example 60, 3-(4-Toluenesulfonyl)-1-dimethylcarbamoyl-1H-1,2,4-triazole] | 0.335 µM |
| CN(C)C(=O)n1cnc(SC2CCOc3ccccc32)n1 (stereo not shown) [Example 10, 3-(Chroman-4-yl)thio-1-dimethylcarbamoyl-1H-1,2,4-triazole] | 0.694 µM |
| CN(C)C(=O)n1cnc(S(=O)(=O)N2CCCCC2)n1 [Example 54, 3-(Piperidin-1-yl)sulfonyl-1-dimethylcarbamoyl-1H-1,2,4-triazole] | 0.164 µM |
| CN(C)C(=O)n1cnc(S(=O)(=O)N2C3CCCC2CC3)n1 [Example 55, 3-(8-Azabicyclo[3.2.1]octan-8-yl)sulfonyl-1-dimethylcarbamoyl-1H-1,2,4-triazole] | 0.0961 µM |
| CN(C)C(=O)n1cnc(S(=O)(=O)CC2CCCCC2)n1 [Example 17, 3-Cyclohexylmethylsulfonyl-1-dimethylcarbamoyl-1H-1,2,4-triazole] | 0.416 µM |
| CN(C)C(=O)n1cnc(S(=O)(=O)N(C)c2ccc(Cl)cc2)n1 [Example 58, 3-[N-(4-chlorophenyl)-N-methylamino]sulfonyl-1-dimethylcarbamoyl-1H-1,2,4-triazole] | 0.0157 µM |
| Cc1cc(C)n(S(=O)(=O)c2ncn(C(=O)N(C)C)n2)n1 [Example 56, 3-(3,5-Dimethylpyrazol-1-yl)sulfonyl-1-dimethylcarbamoyl-1H-1,2,4-triazole] | 0.101 µM |
| Cc1noc(C)c1Sc1ncn(C(=O)N(C)C)n1 [Example 46, 3-(3,5-Dimethylisoxazol-4-yl)thio-1-dimethylcarbamoyl-1H-1,2,4-triazole] | 1.77 µM |
| CN(C)C(=O)n1cnc(S(=O)(=O)c2cccc(Br)n2)n1 [Example 53, 3-(6-Bromo-2-pyridyl)sulfonyl-1-dimethylcarbamoyl-1H-1,2,4-triazole] | 0.351 µM |
| Cc1cc(C)c(S(=O)(=O)c2ncn(C(=O)N(C)C(C)C)n2)c(C)c1 [Example 38, 3-(2,4,6-Trimethylphenyl)sulfonyl-1-(N-methyl-N-isopropylcarbamoyl)-1H-1,2,4-triazole] | 0.00163 µM |
| COCCOc1cccc(C)c1Sc1ncn(C(=O)N(C)C)n1 [Example 42, 3-[2-(2-Methoxyethyl)oxy-6-methylphenyl]thio-1-dimethylcarbamoyl-1H-1,2,4-triazole] | 0.551 µM |
| CC(C)CCS(=O)(=O)c1ncn(C(=O)N(C)C)n1 [Example 20, 3-(3-Methylbutyl)sulfonyl-1-dimethylcarbamoyl-1H-1,2,4-triazole] | 1.37 µM |
| CN(C)C(=O)n1cnc(S(=O)(=O)C(c2ccc(F)cc2)c2ccc(F)cc2)n1 [Example 9, 3-[Bis(4-fluorophenyl)methyl]sulfonyl-1-dimethylcarbamoyl-1H-1,2,4-triazole] | 0.219 µM |
| CC(C)N(C)C(=O)n1cnc(S(=O)(=O)[C@@H]2C[C@@H]3CC[C@H]2C3)n1 (relative stereo) [Example 29, 3-(Endo-norbornan-2-yl)sulfonyl-1-(N-methyl-N-isopropylcarbamoyl)-1H-1,2,4-triazole] | 0.00888 µM |
| CN(C)C(=O)n1cnc(Sc2cccc(Br)n2)n1 [Example 52, 3-(6-Bromo-2-pyridyl)thio-1-dimethylcarbamoyl-1H-1,2,4-triazole] | 4.79 µM |

| Structure (SMILES) | IC50 |
| --- | --- |
| Cc1nn(-c2ccccc2)c(C)c1Sc1ncn(C(=O)N(C)C)n1 [Example 48, 3-(3,5-Dimethyl-1-phenylpyrazol-4-yl)thio-1-dimethylcarbamoyl-1H-1,2,4-triazole] | 1.55 µM |
| CN(C)C(=O)n1cnc(S(=O)(=O)CC(C)(C)C)n1 [Example 21, 3-(2-Dimethylpropyl)sulfonyl-1-dimethylcarbamoyl-1H-1,2,4-triazole] | 0.688 µM |
| Cc1nc2ccccn2c1S(=O)(=O)c1ncn(C(=O)N(C)C)n1 [Example 51, 3-(2-Methylimidazo[1,2-a]pyridin-3-yl)sulfonyl-1-dimethylcarbamoyl-1H-1,2,4-triazole] | 0.106 µM |
| CCCN(C)C(=O)n1cnc(S(=O)(=O)[C@@H]2C[C@@H]3CC[C@H]2C3)n1 (relative stereo) [Example 28, 3-(Endo-norbornan-2-yl)sulfonyl-1-(N-methyl-N-propylcarbamoyl)-1H-1,2,4-triazole] | 0.0584 µM |
| Cc1cc(C)c(S(=O)(=O)c2ncn(C(=O)N(C)c3ccccc3)n2)c(C)c1 [Example 35, 3-(2,4,6-Trimethylphenyl)sulfonyl-1-(N-methyl-N-phenylcarbamoyl)-1H-1,2,4-triazole] | 1.51 µM |
| Cc1cccc(OCC(F)(F)F)c1S(=O)(=O)c1ncn(C(=O)N(C)C)n1 [Example 41, 3-[2-(2,2,2-Trifluoroethyl)oxy-6-methylphenyl]sulfonyl-1-dimethyl-carbamoyl-1H-1,2,4-triazole] | 0.00425 µM |
| Cc1noc(C)c1S(=O)(=O)c1ncn(C(=O)N(C)C)n1 [Example 47, 3-(3,5-Dimethylisoxazol-4-yl)sulfonyl-1-dimethylcarbamoyl-1H-1,2,4-triazole] | 0.103 µM |
| Cc1cc(C)c([S+]([O-])c2ncn(C(=O)N(C)C)n2)c(C)c1 (stereo not shown) [Example 39, 3-(2,4,6-Trimethylphenyl)sulfinyl-1-dimethylcarbamoyl-1H-1,2,4-triazole] | 0.0228 µM |
| O=C(N1CCCC1)n1cnc(S(=O)(=O)[C@@H]2C[C@@H]3CC[C@H]2C3)n1 (relative stereo) [Example 26, 3-(Endo-norbornan-2-yl)sulfonyl-1-(pyrrolidin-1-yl)carbonyl-1H-1,2,4-triazole] | 0.244 µM |
| CN(C)C(=O)n1cnc(S(=O)(=O)Cc2ccc(C(C)(C)C)cc2)n1 [Example 5, 3-(4-Tert-butylbenzyl)sulfonyl-1-dimethylcarbamoyl-1H-1,2,4-triazole] | 1.35 µM |
| CN(C)C(=O)n1cnc(SCc2ccccc2)n1 [Example 1, 3-Benzylthio-1-dimethylcarbamoyl-1H-1,2,4-triazole] | 4.69 µM |
| CN(C)C(=O)n1cnc(S(=O)(=O)N2CCc3ccccc32)n1 [Example 57, 3-(2,3-Dihydro-1H-indol-1-yl)sulfonyl-1-dimethylcarbamoyl-1H-1,2,4-triazole] | 0.23 µM |
| CN(C)C(=O)n1cnc(S(=O)(=O)CC23CC4CC(CC(C4)C2)C3)n1 [Example 19, 3-(1-Adamantylmethyl)sulfonyl-1-dimethylcarbamoyl-1H-1,2,4-triazole] | 0.233 µM |
| CCCN(C)C(=O)n1cnc(S(=O)(=O)c2c(C)cc(C)cc2C)n1 [Example 37, 3-(2,4,6-Trimethylphenyl)sulfonyl-1-(N-methyl-N-propylcarbamoyl)-1H-1,2,4-triazole] | 0.01 µM |
| CN(C)C(=O)n1cnc(SC2CCCCC2)n1 [Example 14, 3-Cyclohexylthio-1-dimethylcarbamoyl-1H-1,2,4-triazole] | 2.22 µM |
| Cc1nc2ccccn2c1Sc1ncn(C(=O)N(C)C)n1 [Example 50, 3-(2-Methylimidazo[1,2-a]pyridin-3-yl)thio-1-dimethylcarbamoyl-1H-1,2,4-triazole] | 5.38 µM |
| CN(C)C(=O)n1cnc(Sc2cc(F)c(C#N)cc2F)n1 [Example 44, 3-(4-Cyano-2,5-difluorophenyl)thio-1-dimethylcarbamoyl-1H-1,2,4-triazole] | 0.318 µM |
| CN(C(=O)n1cnc(S(=O)(=O)[C@@H]2C[C@@H]3CC[C@H]2C3)n1)C(C)(C)C (relative stereo) [Example 31, 3-(Endo-norbornan-2-yl)sulfonyl-1-(N-methyl-N-tert-butylcarbamoyl)-1H-1,2,4-triazole] | 0.92 µM |
| CN(C)C(=O)n1cnc(SCC23CC4CC(CC(C4)C2)C3)n1 [Example 18, 3-(1-Adamantylmethyl)thio-1-dimethylcarbamoyl-1H-1,2,4-triazole] | 4.53 µM |
| CCN(CC)C(=O)n1cnc(S(=O)(=O)Cc2ccccc2)n1 [Example 3, 3-Benzylsulfonyl-1-diethylcarbamoyl-1H-1,2,4-triazole] | 0.784 µM |
| Cc1nn(-c2ccccc2)c(C)c1S(=O)(=O)c1ncn(C(=O)N(C)C)n1 [Example 49, 3-(3,5-Dimethyl-1-phenylpyrazol-4-yl)sulfonyl-1-dimethylcarbamoyl-1H-1,2,4-triazole] | 0.0258 µM |
